Test results: ChEMBL document CHEMBL1201862, “PubChem BioAssay data set” (2004)
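Following 48 hours of exposure in 96-well plates, responses at five concentrations were used to interpolate endpoints linearly. The concentration for 50% growth inhibition is given as GI50.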 Calls of active or inactive are those of the source. Rule as the data show it: active = GI50 up to about 1.1 µM and inactive = higher.

Columns and labels:
Experiment in all cases: DTP human tumour cell line panel, 48 h
CAKI-1 = tested on: CAKI-1
SF-295 = tested on: SF-295
SNB-75 = tested on: SNB-75
SK-MEL-5 = tested on: SK-MEL-5
HCT-116 = tested on: HCT-116
PC-3 = tested on: PC-3
A498 = tested on: A498
SW-620 = tested on: SW-620
T47D = tested on: T47D
MCF7 = tested on: MCF7
RXF 393 = tested on: RXF 393
M19-MEL = tested on: M19-MEL
TK-10 = tested on: TK-10
Hs-578T = tested on: Hs-578T
LOX IMVI = tested on: LOX IMVI
HCT-15 = tested on: HCT-15
786-0 = tested on: 786-0
HL-60 = tested on: HL-60
M14 = tested on: M14
NCI/ADR-RES = tested on: NCI/ADR-RES

Measured: GI50

CCOC(=O)C(=O)NNc1nc2c(s1)C(=O)c1ccccc1C2=O
2540 nM: HCT-15
active: M19-MEL 544 nM
inactive: CAKI-1 20300 nM | SF-295 5010 nM | SNB-75 3650 nM | SK-MEL-5 1860 nM | HCT-116 2680 nM | PC-3 12000 nM | A498 22800 nM | SW-620 2580 nM | T47D 17800 nM | MCF7 15600 nM | RXF 393 4780 nM | TK-10 24500 nM | Hs-578T 2870 nM | LOX IMVI 1750 nM | 786-0 10600 nM | HL-60 1470 nM | M14 2080 nM | NCI/ADR-RES 1870 nM
